The values below come from patent publication US5208236A, “N-(acylaminomethyl)glutaryl amino acids and use” (Schering Corporation, priority 1992, dated 1993).

Each structure is given as a SMILES string.

The target in test [1] is neutral endopeptidase (NEP, EC 3.4.24.11) (Homo sapiens, UniProt P08473). The experiment in a line: NEP inhibition in vitro (IC50). In kind it is biochemical. As for the experimental part: (§1) The ACE inhibitory activity of the compounds of the present invention is determined via in vitro tests using standard test procedures for ACE inhibition well known to those skilled in the art. Similarly, NEP inhibitory activity is determined via in vitro tests using standard test procedures for NEP inhibition well known to those skilled in the art.
Chain of neutral endopeptidase (NEP, EC 3.4.24.11) (P08473 whole entry, species assumed): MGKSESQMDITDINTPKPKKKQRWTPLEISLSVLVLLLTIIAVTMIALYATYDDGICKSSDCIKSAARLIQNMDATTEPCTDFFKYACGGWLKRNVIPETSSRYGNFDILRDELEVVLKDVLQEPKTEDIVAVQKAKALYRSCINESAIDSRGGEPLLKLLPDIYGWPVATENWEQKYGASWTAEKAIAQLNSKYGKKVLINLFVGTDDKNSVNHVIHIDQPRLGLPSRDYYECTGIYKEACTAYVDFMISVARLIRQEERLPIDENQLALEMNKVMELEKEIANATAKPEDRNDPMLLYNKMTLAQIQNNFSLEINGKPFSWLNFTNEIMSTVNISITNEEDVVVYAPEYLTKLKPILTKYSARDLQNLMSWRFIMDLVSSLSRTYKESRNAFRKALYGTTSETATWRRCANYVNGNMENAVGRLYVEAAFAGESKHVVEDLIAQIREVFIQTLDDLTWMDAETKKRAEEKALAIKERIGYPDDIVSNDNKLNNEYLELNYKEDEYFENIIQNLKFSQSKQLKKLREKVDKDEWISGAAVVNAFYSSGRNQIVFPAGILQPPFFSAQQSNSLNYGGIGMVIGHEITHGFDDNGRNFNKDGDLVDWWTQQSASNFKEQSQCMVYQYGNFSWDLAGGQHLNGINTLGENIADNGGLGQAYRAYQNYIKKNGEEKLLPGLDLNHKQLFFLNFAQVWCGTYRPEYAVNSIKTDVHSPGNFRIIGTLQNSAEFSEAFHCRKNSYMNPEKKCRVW

The target of test [2] is angiotensin converting enzyme (ACE) (Homo sapiens, UniProt P12821). Description: ACE inhibition in vitro (IC50). Type of test: biochemical. As for the experimental part: as §1
Chain of angiotensin converting enzyme (ACE) (P12821 30-1306, species assumed): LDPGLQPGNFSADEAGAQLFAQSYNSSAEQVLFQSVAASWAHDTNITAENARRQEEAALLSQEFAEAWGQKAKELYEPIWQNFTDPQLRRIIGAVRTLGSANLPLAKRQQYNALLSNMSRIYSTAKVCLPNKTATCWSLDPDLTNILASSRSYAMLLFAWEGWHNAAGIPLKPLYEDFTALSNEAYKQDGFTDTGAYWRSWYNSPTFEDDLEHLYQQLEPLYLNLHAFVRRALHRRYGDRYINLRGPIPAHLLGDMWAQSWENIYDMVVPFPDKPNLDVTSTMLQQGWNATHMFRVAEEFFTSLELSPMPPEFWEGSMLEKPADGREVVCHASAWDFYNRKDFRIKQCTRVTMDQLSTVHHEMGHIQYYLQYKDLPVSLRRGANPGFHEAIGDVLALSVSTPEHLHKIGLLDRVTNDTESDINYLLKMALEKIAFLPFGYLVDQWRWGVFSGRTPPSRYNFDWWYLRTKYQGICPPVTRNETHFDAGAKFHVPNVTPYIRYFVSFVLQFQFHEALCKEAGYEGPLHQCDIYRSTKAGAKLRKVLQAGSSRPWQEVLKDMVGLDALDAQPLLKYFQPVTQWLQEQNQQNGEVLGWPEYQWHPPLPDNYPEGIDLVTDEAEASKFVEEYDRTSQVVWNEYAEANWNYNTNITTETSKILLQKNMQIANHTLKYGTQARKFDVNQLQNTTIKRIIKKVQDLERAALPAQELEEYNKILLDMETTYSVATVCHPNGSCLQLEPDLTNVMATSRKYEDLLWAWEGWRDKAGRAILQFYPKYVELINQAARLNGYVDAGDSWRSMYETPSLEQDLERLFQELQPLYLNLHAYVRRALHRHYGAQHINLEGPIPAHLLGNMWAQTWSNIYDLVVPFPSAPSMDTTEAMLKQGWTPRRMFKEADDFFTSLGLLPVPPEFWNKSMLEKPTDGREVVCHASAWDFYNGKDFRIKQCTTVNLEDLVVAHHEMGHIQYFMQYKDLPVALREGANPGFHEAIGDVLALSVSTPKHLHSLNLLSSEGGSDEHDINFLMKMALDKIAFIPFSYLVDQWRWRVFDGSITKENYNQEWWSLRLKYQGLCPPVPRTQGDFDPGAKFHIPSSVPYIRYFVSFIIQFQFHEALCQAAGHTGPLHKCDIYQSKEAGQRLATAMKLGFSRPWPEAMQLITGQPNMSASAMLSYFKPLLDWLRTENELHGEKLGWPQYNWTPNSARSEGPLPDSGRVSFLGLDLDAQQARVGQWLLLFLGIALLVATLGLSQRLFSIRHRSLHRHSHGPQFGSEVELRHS
Test [3] concerns angiotensin I (AI) challenge. Description: A1 Challenge Assay. In kind it is in vivo, male Sprague-Dawley rats.

Broadly, the IC50 is the concentration that inhibits the measured activity by half. The low end stands for higher potency, the high end for lower potency. In the case of `CN(C)C(=O)N[C@@H](CCCCNC(=O)OCc1ccccc1)C(=O)NC[C@H](CC1(C(=O)N[C@@H](Cc2ccc(O)cc2)C(=O)O)CCCC1)C(=O)O` [CbzNH C(O) (CH3)2 NH], the IC50 in test [1] worked out at 2 nM; in test [2] it was 450 nM. In addition, the “A1 Chall. (% inhibition)” value in test [3] (dose 30 sc) worked out at 88%.

As to `COC(=O)N[C@@H](CCCCNC(=O)OCc1ccccc1)C(=O)NC[C@H](CC1(C(=O)N[C@@H](Cc2ccc(O)cc2)C(=O)O)CCCC1)C(=O)O` [CbzNH C(O) CH3 O], the IC50 was found to be 8 nM in test [1] and 15 nM in test [2]. The “A1 Chall. (% inhibition)” value in test [3] (dose 30 sc) was determined as 49%.

Take `O=C(NCCCC[C@H](NC(=O)N1CCOCC1)C(=O)NC[C@H](CC1(C(=O)N[C@@H](Cc2ccc(O)cc2)C(=O)O)CCCC1)C(=O)O)OCc1ccccc1` [CbzNH C(O) drawing 38]: the IC50 in test [1] and in test [2] was 2 nM throughout.

For `CN(C)S(=O)(=O)N[C@@H](CCCCNC(=O)OCc1ccccc1)C(=O)NC[C@H](CC1(C(=O)N[C@@H](Cc2ccc(O)cc2)C(=O)O)CCCC1)C(=O)O` [CbzNH SO2 (CH3)2 NH], the IC50 in test [1] and in test [2] was 1 nM each time.

`CS(=O)(=O)N(CCCNC(=O)OCc1ccccc1)CC(=O)NC[C@H](CC1(C(=O)N[C@@H](Cc2ccc(O)cc2)C(=O)O)CCCC1)C(=O)O` [CbzNH SO2 CH3]: the IC50 in test [1] is 2 nM; in test [2], 40 nM. In addition, the “A1 Chall. (% inhibition)” value in test [3] (dose 10 sc) turned out to be 100%.

Turning to `CN(C)C(=O)N[C@@H](CCCCN)C(=O)NC[C@H](CC1(C(=O)N[C@@H](Cc2ccc(O)cc2)C(=O)O)CCCC1)C(=O)O` [NH2 C(O) (CH3)2 NH], the IC50 in test [1] turned out to be 1 nM; in test [2], 15 nM.

With `COC(=O)N[C@@H](CCCCN)C(=O)NC[C@H](CC1(C(=O)N[C@@H](Cc2ccc(O)cc2)C(=O)O)CCCC1)C(=O)O` [NH2 C(O) CH3 O], the IC50 in test [1] came out at 33 nM; in test [2] it was 60 nM. Further, in test [3] (dose 30 sc), the “A1 Chall. (% inhibition)” value is listed as 92%.

`NCCCC[C@H](NC(=O)N1CCOCC1)C(=O)NC[C@H](CC1(C(=O)N[C@@H](Cc2ccc(O)cc2)C(=O)O)CCCC1)C(=O)O` [NH2 C(O) drawing 39]: the IC50 in test [1] is 9 nM; in test [2], 8 nM.

In test [1], `CN(C)S(=O)(=O)N[C@@H](CCCCN)C(=O)NC[C@H](CC1(C(=O)N[C@@H](Cc2ccc(O)cc2)C(=O)O)CCCC1)C(=O)O` [NH2 SO2 (CH3)2 NH] yielded an IC50 of 32 nM.

As for `CS(=O)(=O)N(CCCN)CC(=O)NC[C@H](CC1(C(=O)N[C@@H](Cc2ccc(O)cc2)C(=O)O)CCCC1)C(=O)O` [NH2 SO2 CH3], the IC50 came out at 1 nM in test [1] and 6 nM in test [2]. Further, in test [3] (dose 30 sc), the “A1 Chall. (% inhibition)” value is given as 81%.
